Measured values: the supplement of paper PMC10307832

Columns and labels:
Experiment in all cases: relative viability (nuclei count vs DMSO), 5 days (fraction); higher = more cells survive
17-AAG + Palbociclib = compound: C=CCNC1=C2C[C@@H](C)C[C@H](OC)[C@H](O)[C@@H](C)/C=C(\C)[C@H](OC(N)=O)[C@@H](OC)/C=C\C=C(/C)C(=O)NC(=CC1=O)C2=O [17-AAG] + CC(=O)c1c(C)c2cnc(Nc3ccc(N4CCNCC4)cn3)nc2n(C2CCCC2)c1=O [Palbociclib] (partner 0.5 µM)
In short: (§1)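 Dosing by pin tool came one day after lung cancer cell lines were seeded in 1536-well plates, using either one drug or a fixed anchor-drug dose plus five library-drug doses (not always all listed) in √10 steps. After 5 days, nuclei were counted on 4× images. Relative viability is treated-well nuclei count divided by vehicle-well nuclei count, and values are medians of duplicate plates.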

17-AAG + OSI-027 = compound: C=CCNC1=C2C[C@@H](C)C[C@H](OC)[C@H](O)[C@@H](C)/C=C(\C)[C@H](OC(N)=O)[C@@H](OC)/C=C\C=C(/C)C(=O)NC(=CC1=O)C2=O [17-AAG] + COc1cccc2cc(-c3nc([C@H]4CC[C@H](C(=O)O)CC4)n4ncnc(N)c34)[nH]c12 [OSI-027] (partner 0.5 µM)
In short: as §1

17-AAG + Foretinib = compound: C=CCNC1=C2C[C@@H](C)C[C@H](OC)[C@H](O)[C@@H](C)/C=C(\C)[C@H](OC(N)=O)[C@@H](OC)/C=C\C=C(/C)C(=O)NC(=CC1=O)C2=O [17-AAG] + COc1cc2c(Oc3ccc(NC(=O)C4(C(=O)Nc5ccc(F)cc5)CC4)cc3F)ccnc2cc1OCCCN1CCOCC1 [Foretinib] (partner 0.25 µM)
In short: as §1

17-AAG = compound: C=CCNC1=C2C[C@@H](C)C[C@H](OC)[C@H](O)[C@@H](C)/C=C(\C)[C@H](OC(N)=O)[C@@H](OC)/C=C\C=C(/C)C(=O)NC(=CC1=O)C2=O [17-AAG]
In short: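 Following overnight incubation at 37 °C, lung cancer cell lines in 1536-well plates were pinned with five library-drug doses (not always all listed) in √10 steps on vehicle-anchored plates. The cells then spent 5 days without medium change before a combined fix, permeabilisation and Hoechst stain, 4× imaging and MetaXpress nuclear counts. Viability is the treated-to-vehicle ratio of nuclei, taken as the median across plates. Only plates with control CV below 25% and at least one doubling passed.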

Row | Cell Line | relative viability (17-AAG + Palbociclib; first compound 0.00128 µM) | relative viability (17-AAG + Palbociclib; first compound 0.004048 µM) | relative viability (17-AAG + Palbociclib; first compound 0.0128 µM) | relative viability (17-AAG + Palbociclib; first compound 0.04048 µM) | relative viability (17-AAG + Palbociclib; first compound 0.128 µM) | relative viability (17-AAG + OSI-027; first compound 0.00128 µM) | relative viability (17-AAG + OSI-027; first compound 0.004048 µM) | relative viability (17-AAG + OSI-027; first compound 0.0128 µM) | relative viability (17-AAG + OSI-027; first compound 0.04048 µM) | relative viability (17-AAG + OSI-027; first compound 0.128 µM) | relative viability (17-AAG + Foretinib; first compound 0.00128 µM) | relative viability (17-AAG + Foretinib; first compound 0.004048 µM) | relative viability (17-AAG + Foretinib; first compound 0.0128 µM) | relative viability (17-AAG + Foretinib; first compound 0.04048 µM) | relative viability (17-AAG + Foretinib; first compound 0.128 µM) | relative viability (17-AAG; 0.00128 µM) | relative viability (17-AAG; 0.004048 µM) | relative viability (17-AAG; 0.0128 µM) | relative viability (17-AAG; 0.04048 µM) | relative viability (17-AAG; 0.128 µM)
1 | SK-MES-1 | 0.347 | 0.394 | 0.281 | 0.211 | 0.164 | 0.597 | 0.426 | 0.127 | 0.136 | 0.134 | 1 | 0.997 | 0.501 | 0.192 | 0.154 | 0.966 | 0.86 | 0.45 | 0.181 | 0.159
2 | SW 900 | 0.575 | 0.511 | 0.277 | 0.192 | 0.125 | 0.476 | 0.487 | 0.134 | 0.0879 | 0.0977 | 0.868 | 0.735 | 0.39 | 0.119 | 0.0963 | 0.831 | 0.727 | 0.312 | 0.155 | 0.141
3 | SW 1573 | 0.459 | 0.207 | 0.169 | 0.103 | 0.0788 | 0.639 | 0.444 | 0.163 | 0.108 | 0.091 | 0.886 | 1.01 | 0.829 | 0.24 | 0.113 | 0.973 | 0.95 | 0.542 | 0.151 | 0.104
4 | UMC-11 | 0.353 | 0.371 | 0.3 | 0.249 | 0.292 | 0.469 | 0.512 | 0.255 | 0.233 | 0.202 | 1.02 | 1.04 | 0.847 | 0.27 | 0.174 | 0.943 | 1.01 | 0.839 | 0.478 | 0.195
